One compound from paper PMC3789969, “The Allosteric Role of the AAA^+ Domain of ChlD Protein from the Magnesium Chelatase of Synechocystis Species PCC 6803” (The Journal of Biological Chemistry, 2013) can be followed below.

The target in the assay is T1, magnesium chelatase (ChlI, His6-ChlD, His6-ChlH); porphyrin site (Synechocystis sp. PCC 6803, UniProt P73020).
T1 construct: recombinant from E. coli; His6 tags on ChlD and ChlH; copies are assay ratio; with Magnesium-chelatase subunit ChlI; Magnesium-chelatase subunit ChlD
As to the kind of experiment: continuous fluorometric MgDIX formation assay, Michaelis-Menten fit. The format is biochemical. The conditions noted are these: 5 mM ATP, Mg2+ (mutant not saturated with Mg2+), pH 7.7, 34 °C, I 0.1.

T1 sequence (P51634 whole entry, form open): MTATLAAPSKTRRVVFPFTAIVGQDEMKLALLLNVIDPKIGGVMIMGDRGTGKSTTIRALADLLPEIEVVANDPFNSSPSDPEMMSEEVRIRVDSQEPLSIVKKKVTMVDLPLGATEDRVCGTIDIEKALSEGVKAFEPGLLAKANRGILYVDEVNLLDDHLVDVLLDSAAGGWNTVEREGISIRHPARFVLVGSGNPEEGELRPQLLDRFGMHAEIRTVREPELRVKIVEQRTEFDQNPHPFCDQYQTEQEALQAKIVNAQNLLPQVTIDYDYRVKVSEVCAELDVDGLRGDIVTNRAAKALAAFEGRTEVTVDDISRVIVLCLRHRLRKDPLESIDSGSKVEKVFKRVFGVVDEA
T1 sequence (P73020 entry or part of it, form open): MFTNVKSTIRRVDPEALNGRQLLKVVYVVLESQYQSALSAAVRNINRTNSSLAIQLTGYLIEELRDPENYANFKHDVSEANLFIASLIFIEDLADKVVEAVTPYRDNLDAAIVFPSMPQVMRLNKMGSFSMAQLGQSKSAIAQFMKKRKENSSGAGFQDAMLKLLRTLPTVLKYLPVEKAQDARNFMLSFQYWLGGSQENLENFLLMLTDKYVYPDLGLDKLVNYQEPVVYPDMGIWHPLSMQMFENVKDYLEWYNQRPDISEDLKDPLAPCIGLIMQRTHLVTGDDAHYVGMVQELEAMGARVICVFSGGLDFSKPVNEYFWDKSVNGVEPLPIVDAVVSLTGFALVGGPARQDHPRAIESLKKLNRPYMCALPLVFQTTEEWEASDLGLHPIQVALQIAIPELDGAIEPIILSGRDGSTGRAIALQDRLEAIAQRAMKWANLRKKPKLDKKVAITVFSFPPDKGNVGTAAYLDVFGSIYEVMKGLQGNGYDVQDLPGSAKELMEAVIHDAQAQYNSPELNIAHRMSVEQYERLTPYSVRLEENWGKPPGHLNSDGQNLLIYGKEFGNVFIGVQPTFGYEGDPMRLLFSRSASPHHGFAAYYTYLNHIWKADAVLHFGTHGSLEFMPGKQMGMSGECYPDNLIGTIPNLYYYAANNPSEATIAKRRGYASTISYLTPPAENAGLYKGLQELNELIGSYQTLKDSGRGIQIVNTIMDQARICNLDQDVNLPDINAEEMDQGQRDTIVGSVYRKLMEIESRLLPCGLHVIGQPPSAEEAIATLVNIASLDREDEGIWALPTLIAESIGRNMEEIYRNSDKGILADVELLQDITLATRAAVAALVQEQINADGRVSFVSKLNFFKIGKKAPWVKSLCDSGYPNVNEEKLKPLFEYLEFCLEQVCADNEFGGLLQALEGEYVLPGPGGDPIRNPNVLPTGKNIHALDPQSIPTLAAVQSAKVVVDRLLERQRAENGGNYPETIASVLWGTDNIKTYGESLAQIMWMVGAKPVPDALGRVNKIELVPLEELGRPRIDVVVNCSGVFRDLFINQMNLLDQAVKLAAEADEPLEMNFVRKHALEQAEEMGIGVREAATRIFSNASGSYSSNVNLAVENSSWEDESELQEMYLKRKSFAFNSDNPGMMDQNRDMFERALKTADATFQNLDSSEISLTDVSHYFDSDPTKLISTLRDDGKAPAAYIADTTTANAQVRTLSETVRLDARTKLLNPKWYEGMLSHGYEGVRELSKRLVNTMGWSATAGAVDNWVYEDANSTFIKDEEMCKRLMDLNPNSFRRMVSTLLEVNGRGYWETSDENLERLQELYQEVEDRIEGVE
T1 sequence (P72772 whole entry R289A, form open, further chain): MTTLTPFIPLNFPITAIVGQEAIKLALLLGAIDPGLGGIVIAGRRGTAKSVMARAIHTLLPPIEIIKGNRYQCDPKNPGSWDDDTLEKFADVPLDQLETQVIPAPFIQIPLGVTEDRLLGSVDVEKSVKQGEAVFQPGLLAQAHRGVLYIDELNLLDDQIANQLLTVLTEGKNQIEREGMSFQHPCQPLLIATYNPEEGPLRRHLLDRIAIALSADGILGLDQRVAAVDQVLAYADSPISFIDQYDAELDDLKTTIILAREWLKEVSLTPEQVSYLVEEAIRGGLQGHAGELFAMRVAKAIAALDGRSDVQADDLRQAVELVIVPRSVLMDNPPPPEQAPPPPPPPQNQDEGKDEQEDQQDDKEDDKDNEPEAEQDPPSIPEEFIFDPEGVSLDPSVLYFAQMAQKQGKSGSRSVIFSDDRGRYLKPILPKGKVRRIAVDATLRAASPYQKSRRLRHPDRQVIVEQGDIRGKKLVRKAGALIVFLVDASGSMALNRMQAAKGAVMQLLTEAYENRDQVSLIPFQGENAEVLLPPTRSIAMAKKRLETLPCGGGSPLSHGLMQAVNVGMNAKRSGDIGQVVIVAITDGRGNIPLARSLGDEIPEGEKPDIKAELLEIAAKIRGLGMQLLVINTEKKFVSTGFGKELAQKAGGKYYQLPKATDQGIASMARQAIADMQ

The Km is the concentration of substrate that gives half-maximal velocity. On to `CC1=C(CCC(=O)O)c2cc3nc(cc4[nH]c(cc4C)cc4[nH]c(cc1n2)cc4C)C(C)=C3CCC(=O)O` [deuteroporphyrin IX], for which the Km came out at 0.99 ± 0.12 µM.
